Series [1] can be described thus: Lignan content in murine plasma (LC/MS/MS). The series is classed as in vivo, mice. The note with it: oral, 10 % FS (flaxseed) in diet, FS-fed (10% FS) mouse groups, 4 months post-irradiation, read-out: circulating plasma level. Here is the method:
Circulating plasma levels of the flaxseed lignans ED and EL at time of sacrifice (4 months' post-XRT) were determined by liquid chromatography tandem mass spectrometry (LC/MS/MS) using commercially available standards in 95% purity (Chromadex, Inc., Santa Ana, Calif.) shown in FIG. 39. Plasma flaxseed lignan levels were evaluated in 3 randomly selected mice per group (irradiated mice; diet initiated at −3, 0, +2, +4, +6 weeks of radiation exposure).
Detection of flaxseed metabolites in the circulation using analytical methods was used to confirm that mice were feeding on the flaxseed-supplemented diet to reach physiologically relevant levels. Mice were maintained on control (0% FS) or treatment (10% FS) diets given ad libitum for either three weeks prior to XRT and for the entire duration of the experiment (4 months), or started on the day of XRT or 2,4,6 weeks post XRT and continued for 4 months (see scheme on FIG. 38). Plasma evaluation for lignan detection was done at 16 weeks post XRT.

The subject of series [2] is LLC. Nature of the series: MTS cell proliferation assay with FS lignans: LLC. The series is classed as cell-based. The note with it: 10 μM for 16 hours. Here is the method: (§1) FIG. 37: FS lignans EL and ED, and their precursor SDG, inhibit cell proliferation in tumor cell lines. Tumor cell lines (LKR, TC-1, and LLC) were incubated with 10 μM or 25 μM of SDG, EL, or ED for 16 hours and processed for MTS assay to measure cell proliferation. The % inhibition of cell growth compared to untreated (no lignan) cell lines was calculated. Bars represent means±SEM. n=3 readings per group.
(§2) Cell proliferation was assessed at this time (time 0), and 24 and 48 hours later.
(Formazan colour is commonly taken as a measure of viable cells.)

The subject of series [3] is PMVEC. Nature of the series: tBHQ-induced cell death of PMVEC (LDH release). The series is classed as cell-based, mouse. The note with it: pretreatment 50 μM; 10 μM tBHQ. On the procedure:
Given the in vivo data hereinabove, showing protection of lungs from oxidative injury after flaxseed feeding, a confirmation of similar protection of cells in vitro was desired. Relatively high doses of the electrophile tert-butylhydroquinone (tBHQ) were used to oxidatively stress the cells. […] However, pretreatment of cells with 50 µM of the lignan Enterolactone (EL) was sufficient to protect cells up to 50% from tert-butylhydroquinone (tBHQ)-induced cell death (FIG. 19).

Series [4] deals with LKR. The experiment in a line: MTS cell proliferation assay with FS lignans: LKR. The series is classed as cell-based. The note with it: 10 μM for 16 hours. Here is the method: as §1, §2
In series [5] the test system is proteasomal activity. Nature of the series: Proteasomal inhibition in GFPu-1 cells (anti-GFP immunoblotting). The series is classed as cell-based, human. The note with it: for amount of proteasomal inhibition as compared to Lactacystin and MG 132 / proteasomal inhibition compared to untreated cells (GFP expression): 16 hours; for proteasomal inhibition compared to untreated cells (GFP expression): EL 1 μM to 100 μM. Here is the method:
FIG. 36: Proteasomal inhibition with EL and ED as compared to known pharmacologic inhibitors Lactacystin and MG 132. GFPu-1 kidney epithelial cells were treated for 16 hours with EL and ED at differing concentrations. Proteasomal inhibition was detected by Western blotting using anti-GFP antibody with increased proteasomal inhibition expressed as accumulation of GFP. Representative Western blots are shown with β actin reference (Top panels). Densitometry was performed with β actin normalization, expressed as fold over untreated control±SEM, n=2-6 (Bottom panel). Dotted line represents control expression of GFP. *p<0.005 vs. untreated, **p<0.01 vs. untreated.
GFP^u-1 cells were used to investigate the impact of one of the flaxseed lignans, enterodiole (ED) on proteasomal activity. GFP^u-1 is an human kidney epithelial (HEK)-derived, stably transfected cell line expressing a short degron (CL1) tagged to green fluorescent protein (GFP) as described […].
Using an in vitro means of quantifying proteasomal inhibition with GFPu-1 cells, differing concentrations of the FS lignans EL and ED were compared with known pharmacologic proteasomal inhibitors MG 132 and Lactacystin, incubated for 16 hours prior to processing. Western blotting was performed on whole […] cell lysates using anti-GFP antibodies to quantify the amount of GFP expressed as a marker of the amount of proteasomal inhibition (FIG. 36, Top panels).

Series [6] deals with TC-1. Nature of the series: MTS cell proliferation assay with FS lignans: TC-1. The series is classed as cell-based. The note with it: 10 μM for 16 hours. Here is the method: as §1, §2
In series [7] the test system is LKR cells. Nature of the series: MTS cell proliferation assay with proteasomal inhibitor. The series is classed as cell-based, mouse. The note with it: one day post incubation. On the procedure:
FIG. 35: Cancer cell proliferation is inhibited by a known pharmacological proteasome inhibitor. LKR cells were incubated with MG 132, a known pharmacological proteasomal inhibitor and cell proliferation was measured using the MTS assay at one day post incubation. There was a dose dependent decrease in cell proliferation with increasing doses of MG 132.
LKR cells derived from an explant of a pulmonary tumor from an activated K-rasG12D mutant mouse were incubated with differing concentrations of MG 132, a known pharmacological proteasomal inhibitor to assess for cell proliferation using the MTS assay.

In series [8] the test system is streptozotosin-induced Diabetes mellitus. The note with it: SDG-treated animals; cited from earlier work.
The subject of series [9] is Nrf2. Nature of the series: Nuclear Nrf2 levels in PMVEC. The series is classed as cell-based, mouse. The note with it: 10 μM. The source says:
Nrf2 was detected with our own rabbit polyclonal Antibody (Clone MCS-1a).

Series [10] concerns alveolar epithelial cells (A549). The experiment in a line: H2O2-induced cell death of alveolar epithelial cells (LDH release). The series is classed as cell-based. The note with it: 10, 50, 100, 200, 500 uM; 10 mM H2O2 for 1-6 hours. On the procedure: In addition, using the same assay system to detect cell death, LDH release, an evaluation of the efficacy of the lignan enterodiole, ED, to protect alveolar epithelial cells (A549) from oxidant-induced cell death was made. In these experiments, cells were pre-incubated withincreasing concentrations of ED (10, 50, 100, 200, 500 uM) and challenged with hydrogen peroxide (10 mM H2O2) for 1-6 hours. […] (FIG. 20).

Series [11] has as its system HO-1. Nature of the series: HO-1 immunoblotting in pulmonary microvascular endothelial cells (PMVEC). The series is classed as cell-based, mouse. The note with it: 10 μM; 1,2,4,6,8 and 10 hours. On the procedure: For mechanistic studies, there is a need to establish whether purified lignans (in appropriate, “pharmacologically achievable” concentrations) have similar effects in cell culture as lignan complex diets have in animals. HO-1 levels were thus evaluated by immunoblotting in primary cultures of pulmonary microvascular endothelial cells (PMVEC) isolated from mouse lungs. PMVEC were incubated with the lignan enterodiole (ED) in micromolar concentrations (10 µM) similar to that seen in mouse plasma levels. Cells were incubated with ED for 1,2,4,6,8 and 10 hours.
On the technique in general: A western blot detects proteins with antibodies after separation by electrophoresis.

The test system of series [12] is ROS generation in PMVEC. The experiment in a line: ROS generation (H2DCF) by PMVEC in simulated I/R flow chamber. The series is classed as cell-based, mouse. The note with it: 5 μM for 5 h prior to I/R. On the procedure:
Mouse pulmonary endothelial cells (PMVEC) were grown on coverslips and placed in a Warner chamber and perfused with culture medium for 24 h at a flow rate of 10 dyn/cm^2. Cells were incubated with the Lignan ED (5 μM) for 5 h prior to I/R loaded with H2DCF to monitor ROS immediately before the experiment. I/R in this chamber is simulated by abrupt cessation of perfusate flow and its reinstatement through the chamber 5 minutes later. The images are in pseudocolor with intensity shown on the side bar.

Where a SMILES comes first, the peptide text is derived from it. The star is where a group is joined. Cbz = O=C(OCc1ccccc1)*

For `O=C1OC[C@H](Cc2cccc(O)c2)[C@H]1Cc1cccc(O)c1` [EL, enterolactone], the concentration at 16 weeks post XRT in series [1] fell in the range of 103 to 325 ng/mL. In addition, the “cancer cell proliferation rate (MTS)” value in series [2], in series [4] and in series [6] was “significant decrease” throughout. In series [3], the “protection from tBHQ-induced cell death” value is on record as “up to 50%”. The “amount of proteasomal inhibition as compared to Lactacystin and MG 132” value in series [5] is listed as “no significant difference”. The “proteasomal inhibition compared to untreated cells (GFP expression)” value in series [5] is reported as “significant increase”.
As to `CC(C)C[C@@H](C=O)NC(=O)[C@H](CC(C)C)NC(=O)[C@H](CC(C)C)NC(=O)OCc1ccccc1` [MG 132] (Cbz-Leu-Leu-Leu-aldehyde), in series [7], the “cell proliferation inhibition (MTS)” value is listed as “clear dose dependent response”.
Consider `COc1cc(C[C@@H](CO[C@@H]2O[C@H](CO)[C@@H](O)[C@H](O)[C@H]2O)[C@H](CO[C@@H]2O[C@H](CO)[C@@H](O)[C@H](O)[C@H]2O)Cc2ccc(O)c(OC)c2)ccc1O` [SDG, secoisolariciresinol diglucoside], for which the diabetes result in [8] is listed as “prevention of diabetes”. The “serum and pancreatic lipid peroxidation” value in [8] is given as “decrease”. Besides, the “cancer cell proliferation rate (MTS)” value in series [2], in series [4] and in series [6] was “significant decrease” throughout.
Turning to `OC[C@H](Cc1cccc(O)c1)[C@H](CO)Cc1cccc(O)c1` [ED, enterodiol], the concentration at 16 weeks post XRT in [1] fell in the range of 14 to 405 ng/mL. In addition, in series [9], the “nuclear Nrf2 levels” value is “time-dependent increase”. Besides, the “cancer cell proliferation rate (MTS)” value in series [2], in series [4] and in series [6] was “significant decrease” throughout. The “protection from oxidant-induced cell death (LDH release)” value in [10] was “significantly protected”. The HO-1 levels result in [11] is “robust, time-dependent induction”. The ROS generation result in series [12] is listed as “near complete abrogation”. The “amount of proteasomal inhibition as compared to Lactacystin and MG 132” value in series [5] is given as “comparable to only Lactacystin, not MG 132”. Also, in series [5], the “proteasomal inhibition compared to untreated cells (GFP expression)” value is listed as “significant amount of proteasomal inhibition”. Further, the “GFP levels (proteasomal inhibition)” value in series [5] (Example 15) is recorded as “increased GFP levels in a dose-dependent fashion”.

These data come from US10045951B2, “Flaxseed lignan complex and its use thereof” (priority 2007, dated 2018).
